“Also recorded” adds a separate entry of the source. One block for each molecule: values may come before it.
Columns and labels:
Müller cells = conditions: 1×10^−5 M, RPE-supported retinas; cited from earlier work
[1] = tested on: photoreceptor OS membrane assembly in RPE-deprived retinas; conditions: previous studies (60, 61); cited from earlier work
[2] = tested on: photoreceptor OS membrane assembly in RPE-deprived retinas; assay: In vitro assay of photoreceptor outer segment (OS) membrane assembly in RPE-deprived Xenopus laevis tadpole retinas; type: cell-based; conditions: for average OS organizational grade (mean±SEM; grade 4 = 100% organization): 5×10^−3 M sugar, three days in culture; for ability to promote OS assembly in the presence of the Müller cell inhibitor: with 1×10^−5 M α-AAA, IPTG at 5×10^−5 M
Excerpt: We have used various oligosaccharides at concentrations ranging over four orders of magnitude to evaluate the ability of these oligosaccharides to support OS membrane assembly in RPE-deprived retina, using a Xenopus laevis system that allows for convenient analysis of OS membrane formation in vitro. In the RPE-deprived cultures, the RPE continues to be present as a cluster of cells at the ora serrata; however throughout the posterior pole and periphery of the retina, the RPE layer has been removed from its normal position adjacent to the photoreceptors.
Intact retinas were removed from stage 33/34 Xenopus laevis tadpoles and placed into culture in Niu-Twitty medium for three days as described above. Using this paradigm, all OS material is elaborated while in culture. […]

[3] = tested on: xrds38 isoform of Xenopus peripherin2; assay: Antisense oligonucleotide knockdown in isolated Xenopus laevis eye rudiments; type: cell-based; conditions: steady-state level vs retinas with intact RPE
Excerpt: We have developed an assay system using intact isolated Xenopus laevis eye rudiments coupled with antisense oligonucleotides that is well suited to evaluating the functional role of specific gene products, e.g., in OS membrane assembly. As an example of the capability of this assay system, we generated a loss-of-function model for peripherin2, a genetically and phenotypically well-characterized gene (76-82). Photoreceptors of Xenopus laevis express three distinct isoforms of the peripherin2 gene; cones express xrds38 exclusively, whereas rods express […] xrds38 (83). For purposes of validation of the antisense assay system, our evaluation was directed to xrds38. Phosphorothioated oligonucleotides (two 20-base antisense oligonucleotides and one 20-base sense oligonucleotide) derived from the 5' end of the coding sequences of the xrds38 isoform of Xenopus peripherin2 were utilized. Additional controls included: retinas with an intact RPE, and retinas devoid of RPE with 5 mM exogenous lactose added to the medium. […] The percentage of retinal cells that had positive uptake of the FITC-conjugated oligonucleotide was determined by comparing the volume of bright to dark areas in optical sections obtained with the confocal microscope. […] The steady-state levels of each protein were compared to the levels detected in control retinas maintained with an intact RPE cell layer.

[4] = tested on: putative retinal glycan receptor on Müller cells; assay: Binding of biotinylated-NA3 to embryonic retinas, anti-biotin immunostaining and confocal microscopy; parameters: species or system Xenopus laevis; conditions: biotinylated-NA3 alone
Excerpt: Embryonic Xenopus laevis retinas were exposed to two experimental conditions: (1) biotinylated-NA3; and (2) biotinylated-NA3 with a molar excess of IPTG as a competitive sugar, to eliminate non-specific interactions of NA3 with retinal proteins. After exposure to the sugars followed by immunostaining using a mouse anti-biotin primary antibody and a chicken anti-mouse secondary antibody coupled to Alexa fluor 594 using standard protocols, eyes were bisected and viewed using a confocal microscope.
2. Localization of the glycan receptor using biotinylated-NA3 probe. RPE-deprived retinas from stage 33/34 Xenopus laevis tadpoles are exposed to Niu-Twitty medium containing 10^−7 M biotinylated-NA3 for 3 hours, followed by fixation in 4% paraformaldehyde. Control retinas are incubated in NA3+10^−5 M IPTG to reveal non-specific binding of the NA3 ligand. Subsequent procedures are identical to those described above for immunohistochemical localization. In this instance, however, the following primary and secondary antibodies are utilized: anti-biotin, mouse IgG (Molecular Probes) as primary antibody; and anti-mouse chicken IgG labeled with Alexa Fluor 488 (Molecular Probes). To confirm the localization to a particular retinal cell type, sections are co-stained with antisera that are cell type-specific (e.g., directed against Müller cell- or photoreceptor-specific gene products).

Molecule: NC(CCCC(=O)O)C(=O)O (stereo not drawn) [α-AAA, Alpha-aminoadipic acid]
effect on Müller cell morphology and protein expression patterns (Müller cells): selective alterations | effect on ability of photoreceptors to synthesize opsin (Müller cells): no affect | effect on assembly of nascent OS membranes (Müller cells): interfere with the ability of these cells to properly assembly nascent OS membranes

Molecule: C[C@H](O)[C@@H](O)[C@@H](O)[C@H](O)C=O [fucose]
ability to let OS organize in the absence of the RPE (permissive / non-permissive sugars) [1]: fail to exert any organizational effect

Molecule: OC[C@H]1O[C@@H](O[C@H]2[C@H](O)[C@@H](O)C(O)O[C@@H]2CO)[C@H](O)[C@@H](O)[C@H]1O (some centres unmarked) [lactose]
support of OS assembly in the absence of RPE ([2]; 5×10^−3 M (5 mM)): supports the proper formation of nascent OS; also recorded: OS assembly is supported | concentration that optimally supports OS assembly (maximum effect) ([2]; RPE-deprived retinas): 5000 µM | share of OS membranes highly organized ([2]; RPE-deprived retinas, 5×10^−3 M): 50 to 75% | average OS organizational grade (mean±SEM; grade 4 = 100% organization) ([2]; RPE-deprived retinas): 2.50±0.28 | opsin protein level relative to control [3]: not significantly different from controls | peripherin2 protein level relative to control [3]: slightly elevated above control | ability to let OS organize in the absence of the RPE (permissive / non-permissive sugars) [1]: permit OS to organize

Molecule: asialo, galactosylated, biantennary (NA2) oligosaccharide
concentration that optimally supports OS assembly (maximum effect) ([2]; RPE-deprived retinas): 0.005 µM

Molecule: O=C[C@@H](O)[C@@H](O)[C@H](O)[C@H](O)CO [mannose]
support of OS assembly in the absence of RPE ([2]; 5×10^−3 M (5 mM)): does not favorably affect the folding of OS; also recorded: fails to support the proper assembly of OS | average OS organizational grade (mean±SEM; grade 4 = 100% organization) ([2]; RPE-deprived retinas): 0.52±0.22 | ability to let OS organize in the absence of the RPE (permissive / non-permissive sugars) [1]: fail to exert any organizational effect

Molecule: O=C[C@H](O)[C@@H](O)[C@@H](O)[C@H](O)CO [galactose]
ability to let OS organize in the absence of the RPE (permissive / non-permissive sugars) [1]: permit OS to organize

Molecule: asialo, galactosylated, triantennary (NA3) oligosaccharide
support of OS assembly in the absence of RPE ([2]; 5×10^−10M): robust support of OS assembly | concentration that optimally supports OS assembly (maximum effect) ([2]; RPE-deprived retinas): 0.0005 µM | binding to photoreceptors [4]: did not bind to any portion of photoreceptors

average grade of OS membranes assembled during exposure to the sugar (early part) ([2]; 5×10^−5 M IPTG with 3H-leucine for two days): about 2.88±0.37 | concentration that optimally supports OS assembly (maximum effect) ([2]; RPE-deprived retinas): 50 µM | fold lower concentration than lactose for comparable effect on OS assembly ([2]; RPE-deprived retinas): 100 fold | average OS grade at maximum response ([2]; RPE-deprived retinas, 5×10^−5 M IPTG): 2.61±0.37 | average grade of OS membranes assembled after removal of the sugar (later stage) ([2]; two further days in non-supplemented medium after IPTG): 1.21±0.31
Molecule: CC(C)S[C@@H]1O[C@H](CO)[C@H](O)[C@H](O)[C@H]1O [IPTG, isopropyl beta-D-thiogalactopyranoside]
ability to promote OS assembly in the presence of the Müller cell inhibitor ([2]; RPE-deprived retinas): severely diminished

B1: PEDF: pigment epithelium derived factor, RPE-secreted protein (protein, UniProt P36955 20-418, looked up)
Pigment epithelium-derived …: QNPASPPEEGSPDPDSTGALVEEEDPFFKVPVNKLAAAVSNFGYDLYRVRSSTSPTTNVLLSPLSVATALSALSLGAEQRTESIIHRALYYDLISSPDIHGTYKELLDTVTAPQKNLKSASRIVFEKKLRIKSSFVAPLEKSYGTRPRVLTGNPRLDLQEINNWVQAQMKGKLARSTKEIPDEISILLLGVAHFKGQWVTKFDSRKTSLEDFYLDEERTVRVPMMSDPKAVLRYGLDSDLSCKIAQLPLTGSMSIIFFLPLKVTQNLTLIEESLTSEFIHDIDRELKTVQAVLTVPKLKLSYEGEVTKSLQEMKLQSLFDSPDFSKITGKPIKLTQVEHRAGFEWNEDGAGTTPSPGLQPAHLTFPLDYHLNQPFIFVLRDTDTGALLFIGKILDPRGP
ability to promote OS assembly in the presence of the Müller cell inhibitor ([2]; RPE-deprived retinas): able to support proper membrane folding
